Structures can show the parent of a compound that is named as a salt.
Legend:
Solubility = type: physicochemical
Experimental: The tablet film consists of polyvinyl alcohol, polyethylene glycol, talc, titanium dioxide and yellow iron oxide. Each 200 mg tablet is a pale-yellow film-coated oblong tablet debossed with “KDM” on one side and “200” on the other side. Tablets are stored at room temperature, 20° C. to 25° C. (68° F. to 77° F.); excursions permitted from 15° C. and 30° C. (59° F. to 86° F.).

[1] = Toxicokinetics in pregnant Sprague-Dawley rats (Example 1); type: in vivo, rat; conditions: belumosudil 25 mg base/kg/day oral, GD 17
[2] = Toxicokinetics in pregnant New Zealand White rabbits (Example 2); type: in vivo, rabbit; conditions: GD 18
Experimental: The study was conducted in two phases: Phase A was a dose range finding tolerance study with non-pregnant rabbits, and Phase B was the pilot developmental toxicity study.
All fetuses were given the appropriate external examination.

[3] = Toxicokinetic evaluation in pregnant rats (Example 3); type: in vivo, rat
Source text: Animals received in-life and postmorten evaluations.

[4] = Toxicokinetic evaluation in pregnant rabbits (Example 4); type: in vivo, rabbit
Experimental: The dose levels for the treated groups were 50, 125, 225, mg base/kg/day at a dose volume of 10 mL/kg. The control group received the vehicle in the same manner as the treated groups. […] Individual doses were based on the most recent body weights.
Observations of the animals included clinical signs, body weights, food consumption, and anatomical pathology including a uterine examination. […] All fetuses were given an external, visceral, and skeletal examination.

[5] = Toxicokinetic analysis in rat plasma (Example 5); type: in vivo
Experimental: TK animals were dosed for 70 and 14 days for the males and females, respectively. Dosing of TK males and females was initiated simultaneously, continuing to euthanasia. Refrigerated daily aliquots of dosing formulations were brought to room temperature while continuously stirring for at least 30 minutes prior to dosing.

patients with cGVHD = conditions: cited from earlier work
[6] = belumosudil 50 mg base/kg/day oral
[7] = belumosudil 250 mg base/kg/day oral
[8] = GD 6, belumosudil 15 mg base/kg oral
[9] = GD 6, belumosudil 50 mg base/kg oral
[10] = GD 6, belumosudil 150 mg base/kg oral
[11] = GD 17, belumosudil 15 mg base/kg oral
[12] = GD 17, belumosudil 50 mg base/kg oral
[13] = GD 17, belumosudil 150 mg base/kg oral
[14] = GD 6, belumosudil 125 mg base/kg oral
[15] = GD 6, belumosudil 225 mg base/kg oral
[16] = GD 18, belumosudil 50 mg base/kg oral
[17] = GD 18, belumosudil 125 mg base/kg oral
[18] = GD 18, belumosudil 225 mg base/kg oral
[19] = Day 1, belumosudil 50 mg base/kg, F
[20] = Day 1, belumosudil 50 mg base/kg, M
[21] = Day 1, belumosudil 150 mg base/kg, F
[22] = Day 1, belumosudil 150 mg base/kg, M
[23] = Day 1, belumosudil 275 mg base/kg, F
[24] = Day 1, belumosudil 275 mg base/kg, M
[25] = Day 14, belumosudil 50 mg base/kg, F
[26] = Day 14, belumosudil 150 mg base/kg, F
[27] = Day 14, belumosudil 275 mg base/kg, F
[28] = Day 70, belumosudil 50 mg base/kg, M
[29] = Day 70, belumosudil 150 mg base/kg, M
[30] = Day 70, belumosudil 275 mg base/kg, M

Q: What does the source list for CC(C)NC(=O)COc1cccc(-c2nc(Nc3ccc4[nH]ncc4c3)c3ccccc3n2)c1 [Belumosudil mesylate, 2-{3-[4-(1H-indazol-5-ylamino)-2-quinazolinyl]phenoxy}-N-(propan-2-yl) acetamide methanesulfonate (1:1)]?
A: solubility in DMSO (Solubility): soluble in DMSO; solubility in methanol and DMF (Solubility): slightly soluble in methanol and DMF; solubility in water (Solubility): practically insoluble in water

Q: What does the source list for O=C(O)COc1cccc(-c2nc(Nc3ccc4[nH]ncc4c3)c3ccccc3n2)c1 [KD025m2]?
A: maternal AUC0-24 [1]: 1480 ng·h/mL; maternal Cmax [1]: 127 ng/mL; maternal AUC0-24 [2, 6]: 2990 ng·h/mL; maternal Cmax [2, 6]: 1090 ng/mL; maternal AUC0-24 [2, 7]: 19700 ng·h/mL; maternal Cmax [2, 7]: 3080 ng/mL; Mean AUC0-24 in plasma of pregnant rats [3, 8]: 515 ng·h/mL; Mean Cmax in plasma of pregnant rats [3, 8]: 76.2 ng/mL; Mean AUC0-24 in plasma of pregnant rats [3, 9]: 3050 ng·h/mL; Mean Cmax in plasma of pregnant rats [3, 9]: 191 ng/mL; Mean AUC0-24 in plasma of pregnant rats [3, 10]: 10500 ng·h/mL; Mean Cmax in plasma of pregnant rats [3, 10]: 519 ng/mL; Mean AUC0-24 in plasma of pregnant rats [3, 11]: 572 ng·h/mL; Mean Cmax in plasma of pregnant rats [3, 11]: 55.6 ng/mL; Mean AUC0-24 in plasma of pregnant rats [3, 12]: 3580 ng·h/mL; Mean Cmax in plasma of pregnant rats [3, 12]: 350 ng/mL; Mean AUC0-24 in plasma of pregnant rats [3, 13]: 11100 ng·h/mL; Mean Cmax in plasma of pregnant rats [3, 13]: 972 ng/mL; accumulation after multiple dosing of belumosudil ([3]; pregnant rats): No apparent accumulation; Mean AUC0-24 in plasma of pregnant rabbits [4, 9]: 4180 ng·h/mL; Mean Cmax in plasma of pregnant rabbits [4, 9]: 1170 ng/mL; Mean AUC0-24 in plasma of pregnant rabbits [4, 14]: 13600 ng·h/mL; Mean Cmax in plasma of pregnant rabbits [4, 14]: 2180 ng/mL; Mean AUC0-24 in plasma of pregnant rabbits [4, 15]: 42400 ng·h/mL; Mean Cmax in plasma of pregnant rabbits [4, 15]: 3190 ng/mL; Mean AUC0-24 in plasma of pregnant rabbits [4, 16]: 2470 ng·h/mL; Mean Cmax in plasma of pregnant rabbits [4, 16]: 1120 ng/mL; Mean AUC0-24 in plasma of pregnant rabbits [4, 17]: 16700 ng·h/mL; Mean Cmax in plasma of pregnant rabbits [4, 17]: 3610 ng/mL; Mean AUC0-24 in plasma of pregnant rabbits [4, 18]: 41500 ng·h/mL; Mean Cmax in plasma of pregnant rabbits [4, 18]: 4620 ng/mL; accumulation after multiple dosing of belumosudil ([4]; pregnant rabbits): no apparent accumulation; AUC0-24 in rat plasma [5, 19]: 2110 ng·h/mL; Cmax in rat plasma [5, 19]: 135 ng/mL; AUC0-24 in rat plasma [5, 20]: 5440 ng·h/mL; Cmax in rat plasma [5, 20]: 501 ng/mL; AUC0-24 in rat plasma [5, 21]: 6860 ng·h/mL; Cmax in rat plasma [5, 21]: 398 ng/mL; AUC0-24 in rat plasma [5, 22]: 13600 ng·h/mL; Cmax in rat plasma [5, 22]: 686 ng/mL; AUC0-24 in rat plasma [5, 23]: 11500 ng·h/mL; Cmax in rat plasma [5, 23]: 925 ng/mL; AUC0-24 in rat plasma [5, 24]: 21500 ng·h/mL; Cmax in rat plasma [5, 24]: 1680 ng/mL; AR (Accumulation Ratio) AUC0-24 [5, 25]: 0.657; AUC0-24 in rat plasma [5, 25]: 1390 ng·h/mL; Cmax in rat plasma [5, 25]: 125 ng/mL; AR (Accumulation Ratio) AUC0-24 [5, 26]: 1.04; AUC0-24 in rat plasma [5, 26]: 7110 ng·h/mL; Cmax in rat plasma [5, 26]: 523 ng/mL; AR (Accumulation Ratio) AUC0-24 [5, 27]: 1.80; AUC0-24 in rat plasma [5, 27]: 20700 ng·h/mL; Cmax in rat plasma [5, 27]: 1480 ng/mL; AR (Accumulation Ratio) AUC0-24 [5, 28]: 0.750; AUC0-24 in rat plasma [5, 28]: 4080 ng·h/mL; Cmax in rat plasma [5, 28]: 410 ng/mL; AR (Accumulation Ratio) AUC0-24 [5, 29]: 0.701; AUC0-24 in rat plasma [5, 29]: 9520 ng·h/mL; Cmax in rat plasma [5, 29]: 1070 ng/mL; AR (Accumulation Ratio) AUC0-24 [5, 30]: 1.35; AUC0-24 in rat plasma [5, 30]: 28900 ng·h/mL; Cmax in rat plasma [5, 30]: 1900 ng/mL; accumulation after multiple doses of belumosudil ([5]; rats): less than 2 fold

Q: For C=CC(=O)N1CCC[C@@H](n2nc(-c3ccc(Oc4ccccc4)cc3)c3c(N)ncnc32)C1 [ibrutinib], which “discontinuation rate because of TEAEs” value (patients with cGVHD) is on record?
A: 43%
